Experimental data taken from patent publication US20080009418A1, “Selective Inhibitors” (Alchemia LTD., priority 2004, published 2008).

What was measured:
Human δ-opioid (DOP) = biological target: T1, Human δ-opioid (DOP) (Homo sapiens, UniProt P41143); experiment: Radioligand binding, human δ-opioid (DOP) membranes, FlashPlate, [3H]-Bremazocine; conditions: compound at 10 μM; for A1 radioligand binding inhibition: human δ-opioid (DOP) membranes; for A1: inhibition of radioligand binding: human DOP membranes
T1 construct: purchased Perkin Elmer Biosignal
T1 sequence (P41143 whole entry): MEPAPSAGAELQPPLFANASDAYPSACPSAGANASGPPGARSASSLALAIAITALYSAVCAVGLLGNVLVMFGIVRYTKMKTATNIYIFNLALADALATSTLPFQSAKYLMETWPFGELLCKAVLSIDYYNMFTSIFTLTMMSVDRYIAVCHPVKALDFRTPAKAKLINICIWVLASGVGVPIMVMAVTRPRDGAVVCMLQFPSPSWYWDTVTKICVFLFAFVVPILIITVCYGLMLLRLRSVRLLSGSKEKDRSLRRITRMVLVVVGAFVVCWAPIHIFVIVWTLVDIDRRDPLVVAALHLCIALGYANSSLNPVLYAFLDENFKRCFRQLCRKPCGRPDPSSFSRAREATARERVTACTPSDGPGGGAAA
Procedure, shortened: (§1)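 Cloned human receptor membranes were coated onto FlashPlate wells and incubated with radioligand and compound (added from a 0.5 mM DMSO daughter plate) for 1 hour at room temperature in the dark. Scintillation counting gave percent inhibition, with DMSO defining total and reference ligand defining non-specific binding.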

Human κ-Opioid (KOP) = biological target: T2, Human κ-Opioid (KOP) (Homo sapiens, UniProt P41145); experiment: Radioligand binding, human κ-opioid (KOP) membranes, filtration, [3H]-Diprenorphine; conditions: compound at 10 μM; for A2 radioligand binding inhibition: human κ-opioid (KOP) membranes; for A2: inhibition of radioligand binding: human KOP membranes
T2 construct: purchased Perkin Elmer Biosignal
T2 sequence (P41145 whole entry): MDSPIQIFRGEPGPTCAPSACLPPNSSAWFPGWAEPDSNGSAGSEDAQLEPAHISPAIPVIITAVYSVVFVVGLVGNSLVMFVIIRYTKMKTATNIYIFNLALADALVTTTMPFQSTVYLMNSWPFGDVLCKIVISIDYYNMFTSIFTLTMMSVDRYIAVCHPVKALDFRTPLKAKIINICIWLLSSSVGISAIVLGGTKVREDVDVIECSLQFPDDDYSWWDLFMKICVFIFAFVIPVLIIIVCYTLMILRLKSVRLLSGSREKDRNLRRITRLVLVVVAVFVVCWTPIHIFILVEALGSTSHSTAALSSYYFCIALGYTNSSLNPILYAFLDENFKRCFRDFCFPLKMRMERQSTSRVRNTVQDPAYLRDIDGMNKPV
Procedure, shortened: (§2)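 Membranes from cloned human receptors were incubated with compound and radioligand for 1 hour at room temperature. Bound ligand was collected on 0.3% PEI-soaked filters, washed with cold 50 mM Tris-HCl pH 7.4, and counted by scintillation. Percent inhibition was computed against DMSO totals and reference-ligand nonspecific wells.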

Human Melanocortin (MC3) = biological target: T3, Human Melanocortin (MC3) (Homo sapiens, UniProt P41968); experiment: Radioligand binding, human melanocortin MC3 membranes, FlashPlate, [125I]-NDP-αMSH; conditions: compound at 10 μM; for A3 radioligand binding inhibition: human melanocortin MC3 membranes; for A3: inhibition of radioligand binding: human MC3 membranes
T3 construct: purchased Perkin Elmer Biosignal
T3 sequence (P41968 whole entry): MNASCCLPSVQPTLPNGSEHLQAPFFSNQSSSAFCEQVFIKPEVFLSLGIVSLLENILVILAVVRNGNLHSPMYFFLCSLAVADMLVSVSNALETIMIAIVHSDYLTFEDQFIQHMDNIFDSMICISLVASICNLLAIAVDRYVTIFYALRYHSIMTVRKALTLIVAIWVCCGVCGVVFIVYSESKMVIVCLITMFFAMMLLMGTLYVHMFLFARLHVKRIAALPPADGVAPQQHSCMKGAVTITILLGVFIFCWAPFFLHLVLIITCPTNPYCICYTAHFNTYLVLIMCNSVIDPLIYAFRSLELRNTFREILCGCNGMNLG
Procedure, shortened: as §1

Human Melanocortin (MC4) = biological target: T4, Human Melanocortin (MC4) (Homo sapiens, UniProt P32245); experiment: Radioligand binding, human melanocortin MC4 membranes, FlashPlate, [125I]-NDP-αMSH; conditions: compound at 10 μM; for A4 radioligand binding inhibition: human melanocortin MC4 membranes; for A4: inhibition of radioligand binding: human MC4 membranes
T4 construct: purchased Perkin Elmer Biosignal
T4 sequence (P32245 whole entry): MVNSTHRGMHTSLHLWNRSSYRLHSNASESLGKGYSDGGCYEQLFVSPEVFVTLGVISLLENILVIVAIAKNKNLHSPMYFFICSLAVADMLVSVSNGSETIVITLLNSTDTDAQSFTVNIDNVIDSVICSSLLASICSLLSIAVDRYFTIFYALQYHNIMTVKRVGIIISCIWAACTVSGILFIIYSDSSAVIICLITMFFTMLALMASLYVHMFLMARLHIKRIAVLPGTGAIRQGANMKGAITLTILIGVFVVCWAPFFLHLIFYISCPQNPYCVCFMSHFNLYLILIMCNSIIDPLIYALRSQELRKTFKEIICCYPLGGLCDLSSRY
Procedure, shortened: as §1

Human melanocortin (MC5) = biological target: T5, Human melanocortin (MC5) (Homo sapiens, UniProt P33032); experiment: Radioligand binding, human melanocortin MC5 membranes, FlashPlate, [125I]-NDP-αMSH; conditions: compound at 10 μM; for A5 radioligand binding inhibition: human melanocortin MC5 membranes; for A5: inhibition of radioligand binding: human MC5 membranes
T5 construct: purchased Perkin Elmer Biosignal
T5 sequence (P33032 whole entry): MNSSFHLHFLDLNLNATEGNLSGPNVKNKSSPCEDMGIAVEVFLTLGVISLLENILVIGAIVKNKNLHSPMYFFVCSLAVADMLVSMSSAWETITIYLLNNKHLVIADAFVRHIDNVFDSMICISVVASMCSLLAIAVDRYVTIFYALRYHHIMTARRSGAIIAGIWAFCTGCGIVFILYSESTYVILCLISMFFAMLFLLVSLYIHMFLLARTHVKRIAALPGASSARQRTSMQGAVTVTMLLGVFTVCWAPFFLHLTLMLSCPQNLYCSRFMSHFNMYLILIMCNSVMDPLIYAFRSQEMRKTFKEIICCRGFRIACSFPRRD
Procedure, shortened: as §1

[1] = biological target: T6, Human melanin-concentrating hormone (MCH1) (Homo sapiens, UniProt Q99705); experiment: Radioligand binding, human melanin-concentrating hormone MCH1 membranes, FlashPlate, [125I]-S36057; conditions: compound at 10 μM; for A6 radioligand binding inhibition: human MCH1 membranes; for A6: inhibition of radioligand binding: [125I]-S36057, human MCH1 membranes
T6 construct: purchased Perkin Elmer Biosignal
T6 sequence (Q99705 whole entry): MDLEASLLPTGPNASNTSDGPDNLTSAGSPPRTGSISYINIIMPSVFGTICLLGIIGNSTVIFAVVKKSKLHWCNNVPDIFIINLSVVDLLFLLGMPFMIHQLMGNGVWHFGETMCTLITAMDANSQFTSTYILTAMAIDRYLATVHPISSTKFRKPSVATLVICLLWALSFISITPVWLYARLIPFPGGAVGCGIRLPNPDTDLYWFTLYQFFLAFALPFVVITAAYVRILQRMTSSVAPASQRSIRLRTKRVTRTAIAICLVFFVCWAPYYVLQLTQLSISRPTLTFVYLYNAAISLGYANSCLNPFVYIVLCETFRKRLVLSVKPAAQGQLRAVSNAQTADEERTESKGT
Procedure, shortened: as §1

Human μ-opioid (MOP) = biological target: T7, Human μ-opioid (MOP) (Homo sapiens, UniProt P35372); experiment: Radioligand binding, human μ-opioid (MOP) membranes, FlashPlate, [3H]-Naloxone; conditions: compound at 10 μM; for A7 radioligand binding inhibition: human μ-opioid (MOP) membranes; for A7: inhibition of radioligand binding: human MOP membranes
T7 construct: purchased Perkin Elmer Biosignal
T7 sequence (P35372 whole entry): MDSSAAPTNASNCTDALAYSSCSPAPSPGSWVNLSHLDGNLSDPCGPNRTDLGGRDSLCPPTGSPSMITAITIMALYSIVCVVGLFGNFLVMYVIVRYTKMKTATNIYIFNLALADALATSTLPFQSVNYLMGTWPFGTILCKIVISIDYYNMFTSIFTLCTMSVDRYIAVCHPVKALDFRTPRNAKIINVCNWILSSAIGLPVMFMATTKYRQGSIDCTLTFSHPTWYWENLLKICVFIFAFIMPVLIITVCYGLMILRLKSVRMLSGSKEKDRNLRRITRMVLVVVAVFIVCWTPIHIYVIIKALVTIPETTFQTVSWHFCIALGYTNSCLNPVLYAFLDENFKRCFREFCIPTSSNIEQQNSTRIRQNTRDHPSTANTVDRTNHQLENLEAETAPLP
Procedure, shortened: as §1

Human neurokinin (NK1) = biological target: T8, Human neurokinin (NK1) (Homo sapiens, UniProt P25103); experiment: Radioligand binding, human neurokinin NK1 membranes, filtration, [125I]-Substance P; conditions: compound at 10 μM; for A8 radioligand binding inhibition: human neurokinin NK1 membranes; for A8: inhibition of radioligand binding: human NK1 membranes
T8 construct: purchased Perkin Elmer Biosignal
T8 sequence (P25103 whole entry): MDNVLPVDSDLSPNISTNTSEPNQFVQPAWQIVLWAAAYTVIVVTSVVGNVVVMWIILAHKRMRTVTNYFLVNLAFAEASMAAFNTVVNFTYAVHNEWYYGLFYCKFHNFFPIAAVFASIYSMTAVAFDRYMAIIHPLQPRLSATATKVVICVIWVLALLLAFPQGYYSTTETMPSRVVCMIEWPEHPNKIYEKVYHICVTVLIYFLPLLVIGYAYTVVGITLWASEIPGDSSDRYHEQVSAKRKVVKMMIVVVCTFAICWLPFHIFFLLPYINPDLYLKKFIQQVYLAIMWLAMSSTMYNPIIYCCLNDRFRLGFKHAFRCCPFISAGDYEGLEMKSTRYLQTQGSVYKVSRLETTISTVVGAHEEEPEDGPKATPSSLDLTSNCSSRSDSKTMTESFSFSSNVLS
Procedure, shortened: as §2

[2] = biological target: T9, Human neuropeptide Y (NPY-Y1) (Homo sapiens, UniProt P25929); experiment: Radioligand binding, human neuropeptide Y NPY-Y1 membranes, FlashPlate, [125I]-PYY; conditions: compound at 10 μM; for A9 radioligand binding inhibition / A9: inhibition of radioligand binding: human NPY-Y1 membranes
T9 construct: purchased Perkin Elmer Biosignal
T9 sequence (P25929 1-384): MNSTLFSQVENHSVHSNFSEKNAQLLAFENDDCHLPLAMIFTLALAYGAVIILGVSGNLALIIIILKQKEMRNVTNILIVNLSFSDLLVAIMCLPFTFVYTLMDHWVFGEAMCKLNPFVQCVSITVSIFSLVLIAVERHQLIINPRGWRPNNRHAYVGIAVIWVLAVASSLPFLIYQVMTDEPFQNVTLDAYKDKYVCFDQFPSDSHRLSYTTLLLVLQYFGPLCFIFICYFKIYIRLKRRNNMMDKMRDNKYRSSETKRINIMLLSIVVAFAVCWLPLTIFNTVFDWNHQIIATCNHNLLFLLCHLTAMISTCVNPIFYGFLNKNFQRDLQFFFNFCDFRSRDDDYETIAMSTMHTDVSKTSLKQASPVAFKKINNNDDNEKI
Procedure, shortened: as §1

Human opioid (ORL1) = biological target: T10, Human opioid (ORL1) (Homo sapiens, UniProt P41146); experiment: Radioligand binding, human opioid ORL1 membranes, FlashPlate, [125I]-Nociceptin; conditions: compound at 10 μM; for A10 radioligand binding inhibition / A10: inhibition of radioligand binding: human ORL1 membranes
T10 construct: purchased Perkin Elmer Biosignal
T10 sequence (P41146 whole entry): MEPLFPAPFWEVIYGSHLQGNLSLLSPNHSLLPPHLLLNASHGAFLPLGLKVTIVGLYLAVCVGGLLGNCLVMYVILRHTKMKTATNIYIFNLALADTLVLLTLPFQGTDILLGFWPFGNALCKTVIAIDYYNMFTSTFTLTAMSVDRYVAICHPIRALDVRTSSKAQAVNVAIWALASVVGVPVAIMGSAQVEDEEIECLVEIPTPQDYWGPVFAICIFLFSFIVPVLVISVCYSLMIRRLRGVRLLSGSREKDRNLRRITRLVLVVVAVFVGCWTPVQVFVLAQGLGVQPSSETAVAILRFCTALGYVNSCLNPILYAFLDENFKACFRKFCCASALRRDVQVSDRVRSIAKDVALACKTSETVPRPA
Procedure, shortened: as §1

Mouse urotensin (mUR2) = biological target: T11, Mouse urotensin (mUR2) (Mus musculus, UniProt Q8VIH9); experiment: Radioligand binding, mouse urotensin mUR2 membranes, FlashPlate, [125I]-Urotensin II; conditions: compound at 10 μM; for A11 radioligand binding inhibition: mouse urotensin mUR2 membranes; for A11: inhibition of radioligand binding: mouse mUR2 membranes
T11 construct: purchased Perkin Elmer Biosignal
T11 sequence (Q8VIH9 1-385): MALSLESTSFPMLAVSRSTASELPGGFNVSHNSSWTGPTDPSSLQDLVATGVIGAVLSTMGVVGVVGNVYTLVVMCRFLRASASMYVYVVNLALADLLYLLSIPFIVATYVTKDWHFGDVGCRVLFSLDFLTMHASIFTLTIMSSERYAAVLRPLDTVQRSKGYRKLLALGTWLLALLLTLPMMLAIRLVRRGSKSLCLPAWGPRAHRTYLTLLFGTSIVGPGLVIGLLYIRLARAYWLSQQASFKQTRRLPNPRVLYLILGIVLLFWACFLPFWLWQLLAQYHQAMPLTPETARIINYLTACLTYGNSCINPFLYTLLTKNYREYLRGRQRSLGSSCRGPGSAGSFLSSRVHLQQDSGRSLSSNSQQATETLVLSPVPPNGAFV
Procedure, shortened: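 Cloned mouse urotensin (mUR2) receptor membranes from Perkin Elmer Biosignal were immobilized in FlashPlate microplates using a proprietary coating. Each well got 19.5 μl buffer, then 0.5 μl of DMSO, reference ligand, or compound. Adding 5 μl of [125I]-Urotensin II, diluted to 5× final concentration in binding buffer, started binding. Plates were sealed with TopSeal-A and incubated 1 hour at room temperature in the dark. Wells were counted for 30 seconds each on a TopCount after a 60-second delay, and percentage inhibition was calculated.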

SMILES	A1 radioligand binding inhibition (Human δ-opioid (DOP))	A2 radioligand binding inhibition (Human κ-Opioid (KOP))	A3 radioligand binding inhibition (Human Melanocortin (MC3))	A4 radioligand binding inhibition (Human Melanocortin (MC4))	A5 radioligand binding inhibition (Human melanocortin (MC5))	A6 radioligand binding inhibition [1]	A7 radioligand binding inhibition (Human μ-opioid (MOP))	A8 radioligand binding inhibition (Human neurokinin (NK1))	A9 radioligand binding inhibition [2]	A10 radioligand binding inhibition (Human opioid (ORL1))	A11 radioligand binding inhibition (Mouse urotensin (mUR2))	A1: inhibition of radioligand binding (Human δ-opioid (DOP); [3H]-Bremazocine)	A2: inhibition of radioligand binding (Human κ-Opioid (KOP); [3H]-Diprenorphine)	A3: inhibition of radioligand binding (Human Melanocortin (MC3); [125I]-NDP-αMSH)	A4: inhibition of radioligand binding (Human Melanocortin (MC4); [125I]-NDP-αMSH)	A5: inhibition of radioligand binding (Human melanocortin (MC5); [125I]-NDP-αMSH)	A6: inhibition of radioligand binding [1]	A7: inhibition of radioligand binding (Human μ-opioid (MOP); [3H]-Naloxone)	A8: inhibition of radioligand binding (Human neurokinin (NK1); [125I]-Substance P)	A9: inhibition of radioligand binding ([2]; [125I]-PYY)	also measured
CO[C@H]1[C@H](O)[C@@H](COCc2ccc3ccccc3c2)OC(OCc2ccc3ccccc3c2)[C@@H]1NC(=O)CNC(=N)N (stereo partly shown) [compound 70]	− (“−” indicates less than 50% inhibition at 10 μM)	− (“−” indicates less than 50% inhibition at 10 μM)	+ (“+” indicates greater than 50% inhibition at 10 μM)	+ (“+” indicates greater than 50% inhibition at 10 μM)	+ (“+” indicates greater than 50% inhibition at 10 μM)	− (“−” indicates less than 50% inhibition at 10 μM)	+ (“+” indicates greater than 50% inhibition at 10 μM)	+ (“+” indicates greater than 50% inhibition at 10 μM)	− (“−” indicates less than 50% inhibition at 10 μM)	− (“−” indicates less than 50% inhibition at 10 μM)	− (“−” indicates less than 50% inhibition at 10 μM)										
COC[C@H]1OC(OCc2ccc3ccccc3c2)[C@H](NC(=O)CNC(=N)N)[C@@H](OCc2ccc(-c3ccccc3)cc2)[C@@H]1O (stereo partly shown) [compound 14]	− (“−” indicates less than 50% inhibition at 10 μM)	− (“−” indicates less than 50% inhibition at 10 μM)	− (“−” indicates less than 50% inhibition at 10 μM)	+ (“+” indicates greater than 50% inhibition at 10 μM)	+ (“+” indicates greater than 50% inhibition at 10 μM)	+ (“+” indicates greater than 50% inhibition at 10 μM)	+ (“+” indicates greater than 50% inhibition at 10 μM)	− (“−” indicates less than 50% inhibition at 10 μM)	− (“−” indicates less than 50% inhibition at 10 μM)	− (“−” indicates less than 50% inhibition at 10 μM)	− (“−” indicates less than 50% inhibition at 10 μM)										
N=C(N)NCC(=O)N[C@H]1C(OCc2ccc(Cl)cc2)O[C@H](COCc2ccccc2)[C@@H](O)[C@@H]1OCc1ccc(-c2ccccc2)cc1 (stereo partly shown) [compound 518]																					A1: inhibition of radioligand binding, human δ-opioid (DOP) (Human δ-opioid (DOP); [3H]-Bremazocine): − (“−” indicates less than 50% inhibition at 10 μM); A2: inhibition of radioligand binding, human κ-opioid (KOP) (Human κ-Opioid (KOP); [3H]-Diprenorphine): − (“−” indicates less than 50% inhibition at 10 μM); A3: inhibition of radioligand binding, human melanocortin (MC3) (Human Melanocortin (MC3); [125I]-NDP-αMSH, 10 µM): − (“−” indicates less than 50% inhibition at 10 μM); A4: inhibition of radioligand binding, human melanocortin (MC4) (Human Melanocortin (MC4); [125I]-NDP-αMSH, 10 µM): − (“−” indicates less than 50% inhibition at 10 μM); A5: inhibition of radioligand binding, human melanocortin (MC5) (Human melanocortin (MC5); [125I]-NDP-αMSH, 10 µM): − (“−” indicates less than 50% inhibition at 10 μM); A6: inhibition of radioligand binding, human melanin-concentrating hormone (MCH1) ([1]; [125I]-S36057, 10 µM): − (“−” indicates less than 50% inhibition at 10 μM); A7: inhibition of radioligand binding, human μ-opioid (MOP) (Human μ-opioid (MOP); [3H]-Naloxone): − (“−” indicates less than 50% inhibition at 10 μM); A8: inhibition of radioligand binding, human neurokinin (NK1) (Human neurokinin (NK1); [125I]-Substance P): + (“+” indicates greater than 50% inhibition at 10 μM); A9: inhibition of radioligand binding, human neuropeptide Y (NPY-Y1) ([2]; [125I]-PYY): − (“−” indicates less than 50% inhibition at 10 μM); A10: inhibition of radioligand binding, human opioid (ORL1) (Human opioid (ORL1); [125I]-Nociceptin): − (“−” indicates less than 50% inhibition at 10 μM); A11: inhibition of radioligand binding, mouse urotensin (mUR2) (Mouse urotensin (mUR2); [125I]-Urotensin II): − (“−” indicates less than 50% inhibition at 10 μM)
N=C(N)NCCC(=O)NC1C(OCc2ccc(Cl)cc2)OC(COCc2ccc(Cl)cc2)C(O)C1OCc1ccc(Cl)cc1 (stereo not shown) [compound 428]												− (“−” indicates less than 50% inhibition at 10 μM)	− (“−” indicates less than 50% inhibition at 10 μM)	+ (“+” indicates greater than 50% inhibition at 10 μM)	+ (“+” indicates greater than 50% inhibition at 10 μM)	+ (“+” indicates greater than 50% inhibition at 10 μM)	+ (“+” indicates greater than 50% inhibition at 10 μM)	− (“−” indicates less than 50% inhibition at 10 μM)	+ (“+” indicates greater than 50% inhibition at 10 μM)	− (“−” indicates less than 50% inhibition at 10 μM)	A10: inhibition of radioligand binding (Human opioid (ORL1); [125I]-Nociceptin): + (“+” indicates greater than 50% inhibition at 10 μM); A11: inhibition of radioligand binding (Mouse urotensin (mUR2); [125I]-Urotensin II): − (“−” indicates less than 50% inhibition at 10 μM)
NCCC(=O)N[C@H]1C(OCc2ccc3ccccc3c2)O[C@H](COCc2ccc3ccccc3c2)[C@@H](O)[C@@H]1OCc1ccc2ccccc2c1 (stereo partly shown) [compound 442]												− (“−” indicates less than 50% inhibition at 10 μM)	− (“−” indicates less than 50% inhibition at 10 μM)	+ (“+” indicates greater than 50% inhibition at 10 μM)	+ (“+” indicates greater than 50% inhibition at 10 μM)	+ (“+” indicates greater than 50% inhibition at 10 μM)	+ (“+” indicates greater than 50% inhibition at 10 μM)	− (“−” indicates less than 50% inhibition at 10 μM)	+ (“+” indicates greater than 50% inhibition at 10 μM)	− (“−” indicates less than 50% inhibition at 10 μM)	A10: inhibition of radioligand binding (Human opioid (ORL1); [125I]-Nociceptin): + (“+” indicates greater than 50% inhibition at 10 μM); A11: inhibition of radioligand binding (Mouse urotensin (mUR2); [125I]-Urotensin II): − (“−” indicates less than 50% inhibition at 10 μM)
